# In patent US5491135A (priority 1993, dated 1996):
# Several values for one entry are separate records, joined by “and”; a condition that tells them apart may be missing. Equal values may be shown once. Entries after “also recorded” stand apart in the source; their conditions may differ. Read-outs that look alike come from different tables or passages of the source.
# Experiments:
# [1] = tested on: HCMV strain AD169; type: cell-based
# [2] = tested on: clinical HCMV isolate; type: cell-based
# [3] = tested on: HCMV strain AD 169; experiment: Rabbit HCMV efficacy and time course recovery (Example 6)
# [4] = tested on: HCMV strain AD 169; experiment: Rabbit HCMV ascending dose efficacy and time course recovery (Example 7); details: for Average HCMV titer / HCMV Recovered, OD / HCMV Recovered, OS / HCMV Titer, OD / HCMV Titer, OS / HCMV recovery frequency / Optic neuritis score (ONH) / Vitreo-retinal score: PALA 50 or DHPG 10 mg/kg/d; for Vitreo-retinal score: sum of both eyes
# [5] = PALA 50, DHPG 10 or both, mg/kg/day i.v.
# [6] = day 3, DHPG 10 or PALA 50 + DHPG 10 mg/kg/d, sum of both eyes
# [7] = day 3, PALA 50, DHPG 10 or both, mg/kg/d
# [8] = day 3, sham-inoculated S1-S5, dose as groups 1-5
# [9] = day 4, DHPG 10 or PALA 50 + DHPG 10 mg/kg/d, sum of both eyes
# [10] = day 4, PALA 50, DHPG 10 or both, mg/kg/d
# [11] = day 4, sham-inoculated S1-S5, dose as groups 1-5
# [12] = day 5, DHPG 10 or PALA 50 + DHPG 10 mg/kg/d, sum of both eyes
# [13] = day 5, PALA 50, DHPG 10 or both, mg/kg/d
# [14] = day 5, sham-inoculated S1-S5, dose as groups 1-5
# [15] = day 6, PALA 50, DHPG 10 or both, mg/kg/d
# [16] = day 6, sham-inoculated S1-S5, dose as groups 1-5
# [17] = day 7, DHPG 10 or PALA 50 + DHPG 10 mg/kg/d, sum of both eyes
# [18] = day 7, sham-inoculated S1-S5, dose as groups 1-5
# [19] = day 10, DHPG 10 or PALA 50 + DHPG 10 mg/kg/d, sum of both eyes
# [20] = day 10, sham-inoculated S1-S5, dose as groups 1-5
compound,measurement,setting,value
"Nc1nc(O)c2ncn(COC(CO)CO)c2n1 [DHPG, reference compound]",EC50,"[1]; Human betaherpesvirus 5, AD169, Hs68, AD 169, read-out: ED50 (the source's name)",19 µg/mL
same,Cell associated HCMV titer,[1]; day 0 PI,10^2 PFU/ml
same,Cell free (supernatant) HCMV titer,[1]; day 0 PI,10^5 PFU/ml
same,Cell associated HCMV titer,[1]; day 1 PI,10^2 PFU/ml
same,Cell free (supernatant) HCMV titer,[1]; day 1 PI,10^1 PFU/ml
same,Cell associated HCMV titer,[1]; day 2 PI,10^1 PFU/ml
same,Cell free (supernatant) HCMV titer,[1]; day 2 PI,10^1 PFU/ml
same,Cell associated HCMV titer,[1]; day 3 PI,10^1 PFU/ml
same,Cell free (supernatant) HCMV titer,[1]; day 3 PI,10^1 PFU/ml
same,Cell associated HCMV titer,[1]; day 4 PI,10^1 PFU/ml
same,Cell free (supernatant) HCMV titer,[1]; day 4 PI,0 PFU/ml
same,Cell associated HCMV titer,[1]; day 5 PI,0 PFU/ml
same,Cell free (supernatant) HCMV titer,[1]; day 5 PI,0 PFU/ml
same,Cell associated HCMV titer,[1]; day 6 PI,10^1 PFU/ml
same,Cell associated HCMV titer,[1]; day 7 PI,0 PFU/ml
same,reduction of HCMV titer,[2],effective in reducing the titer
same,Cell associated HCMV titer,[2]; day 0 PI,10^2 PFU/ml
same,Cell free (supernatant) HCMV titer,[2]; day 0 PI,10^5 PFU/ml
same,Cell associated HCMV titer,[2]; day 1 PI,10^3 PFU/ml
same,Cell free (supernatant) HCMV titer,[2]; day 1 PI,10^1 PFU/ml
same,Cell associated HCMV titer,[2]; day 2 PI,10^2 PFU/ml
same,Cell free (supernatant) HCMV titer,[2]; day 2 PI,10^1 PFU/ml
same,Cell associated HCMV titer,[2]; day 3 PI,10^1 PFU/ml
same,Cell free (supernatant) HCMV titer,[2]; day 3 PI,10^1 PFU/ml
same,Cell associated HCMV titer,[2]; day 4 PI,10^1 PFU/ml
same,Cell free (supernatant) HCMV titer,[2]; day 4 PI,10^1 PFU/ml
same,Cell associated HCMV titer,[2]; day 5 PI,0 PFU/ml
same,Cell free (supernatant) HCMV titer,[2]; day 5 PI,0 PFU/ml
same,Cell associated HCMV titer,[2]; day 6 PI,10^1 PFU/ml
same,Cell associated HCMV titer,[2]; day 7 PI,10^1 PFU/ml
same,HCMV recovery,[3]; [5],better than the mid-dose and low-dose combination therapy group and the single agent PALA group and the placebo therapy group
same,clinical disease,[3]; [5],did reduce the development of HCMV chorioretinal infection and disease and vitreitis
same,Optic neuritis score (ONH),"[3]; day 3, DHPG 10 or PALA 50 + DHPG 10 mg/kg/d",2
same,Chorioretinal score (C),[3]; [6],0
same,Vitreitis score (V),[3]; [6],3 and 2
same,"HCMV Recovered, OD",[3]; [7],+
same,"HCMV Recovered, OS",[3]; [7],+
same,"HCMV Titer, OD",[3]; [7],10^3 pfu
same,"HCMV Titer, OS",[3]; [7],10^3 pfu
same,HCMV recovery frequency,[3]; [7],2/2
same,Chorioretinal score (C),[3]; [8],0
same,Vitreitis score (V),[3]; [8],0
same,Optic neuritis score (ONH),"[3]; day 3, sham-inoculated S2-S5, dose as groups 2-5",0
same,Chorioretinal score (C),[3]; [9],0.5
same,Vitreitis score (V),[3]; [9],4 and 4.25
same,"HCMV Recovered, OD",[3]; [10],+
same,"HCMV Recovered, OS",[3]; [10],-
same,"HCMV Titer, OD",[3]; [10],10^1 pfu
same,HCMV recovery frequency,[3]; [10],1/2
same,Chorioretinal score (C),[3]; [11],0
same,Vitreitis score (V),[3]; [11],0
same,Optic neuritis score (ONH),"[3]; day 4, sham-inoculated S2-S5, dose as groups 2-5",0
same,Optic neuritis score (ONH),"[3]; day 5, DHPG 10 or PALA 50 + DHPG 10 mg/kg/d",4 and 5
same,Chorioretinal score (C),[3]; [12],0.5
same,Vitreitis score (V),[3]; [12],4.5 and 2.75
same,"HCMV Recovered, OD",[3]; [13],-
same,"HCMV Recovered, OS",[3]; [13],-
same,HCMV recovery frequency,[3]; [13],0/2
same,Chorioretinal score (C),[3]; [14],0
same,Vitreitis score (V),[3]; [14],0
same,Optic neuritis score (ONH),"[3]; day 5, sham-inoculated S2-S5, dose as groups 2-5",0
same,Vitreitis score (V),"[3]; day 6, DHPG 10 or PALA 50 + DHPG 10 mg/kg/d, sum of both eyes",3.5 and 2.5
same,"HCMV Recovered, OD",[3]; [15],+
same,"HCMV Recovered, OS",[3]; [15],-
same,HCMV recovery frequency,[3]; [15],1/2
same,"HCMV Titer, OD","[3]; day 6, PALA 50 or DHPG 10 mg/kg/d",10^1 pfu
same,Chorioretinal score (C),[3]; [16],0
same,Vitreitis score (V),[3]; [16],0
same,Optic neuritis score (ONH),"[3]; day 6, sham-inoculated S2-S5, dose as groups 2-5",0
same,Optic neuritis score (ONH),"[3]; day 7, DHPG 10 or PALA 50 + DHPG 10 mg/kg/d",3 and 6
same,Chorioretinal score (C),[3]; [17],0
same,Vitreitis score (V),[3]; [17],3.5 and 3
same,Chorioretinal score (C),[3]; [18],0
same,Vitreitis score (V),[3]; [18],0
same,Optic neuritis score (ONH),"[3]; day 7, sham-inoculated S2-S5, dose as groups 2-5",0
same,Optic neuritis score (ONH),"[3]; day 10, DHPG 10 or PALA 50 + DHPG 10 mg/kg/d",3
same,Chorioretinal score (C),[3]; [19],0
same,Vitreitis score (V),[3]; [19],1.75 and 1.25
same,Chorioretinal score (C),[3]; [20],0
same,Vitreitis score (V),[3]; [20],0
same,Optic neuritis score (ONH),"[3]; day 10, sham-inoculated S2-S5, dose as groups 2-5",0
same,clinical disease / efficacy,[4]; PALA 50 or DHPG 10 mg/kg/day i.v.,did reduce the development of HCMV-induced optic nerve disease severity; also recorded: vitreitis was only marginally affected
same,Average HCMV titer,[4]; day 3,10^3 pfu
same,"HCMV Recovered, OD",[4]; day 3,+
same,"HCMV Recovered, OS",[4]; day 3,- and +
same,"HCMV Titer, OD",[4]; day 3,10^4 pfu
same,"HCMV Titer, OS",[4]; day 3,10^3 pfu
same,HCMV recovery frequency,[4]; day 3,3/4
same,Optic neuritis score (ONH),[4]; day 3,5.0 and 4.0
same,Vitreo-retinal score,[4]; day 3,4.75 and 5.0
same,"HCMV Recovered, OD",[4]; day 4,+
same,"HCMV Recovered, OS",[4]; day 4,-
same,"HCMV Titer, OD",[4]; day 4,10^2 pfu and 10^3 pfu
same,HCMV recovery frequency,[4]; day 4,2/4
same,Optic neuritis score (ONH),[4]; day 4,6.0 and 5.0
same,Vitreo-retinal score,[4]; day 4,3.75 and 5.75
same,Average HCMV titer,[4]; day 5,10^2 pfu
same,"HCMV Recovered, OD",[4]; day 5,- and +
same,"HCMV Recovered, OS",[4]; day 5,+ and -
same,"HCMV Titer, OD",[4]; day 5,10^2 pfu
same,"HCMV Titer, OS",[4]; day 5,10^2 pfu
same,HCMV recovery frequency,[4]; day 5,2/4
same,Optic neuritis score (ONH),[4]; day 5,4.0 and 5.0
same,Vitreo-retinal score,[4]; day 5,4.0 and 5.0
same,Average HCMV titer,[4]; day 6,10^1 pfu
same,"HCMV Recovered, OD",[4]; day 6,-
same,"HCMV Recovered, OS",[4]; day 6,- and +
same,"HCMV Titer, OD",[4]; day 6,10^2 pfu
same,HCMV recovery frequency,[4]; day 6,1/4
same,Optic neuritis score (ONH),[4]; day 6,2.0
same,Optic neuritis score (ONH),[4]; day 7,2.0
same,Vitreo-retinal score,[4]; day 7,3.25 and 5.5
same,"HCMV Recovered, OD",[4]; day 12,-
same,"HCMV Recovered, OS",[4]; day 12,-
